According to patent publication US9738634B2, “Heterocyclic amide compound and herbicide” (SYNGENTA PARTICIPATIONS AG, priority 2013, dated 2017):

Legend:
Type in all cases: in vivo
transplanted rice = assay: Test Example 1: preemergent weed treatment in the submerged state, effect on crop; a: transplanted rice; conditions: treatment dosage 252 g/ha
Summary of the method: (§1)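 Pre-emergence paddy test: weed seeds sown in submerged alluvial soil (4 cm water), 2.5-leaf rice transplanted, water-diluted emulsion applied to water surface at sowing at stated g/ha. Scored at 3 weeks, greenhouse 25–30 °C.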

bulrush [1] = assay: Test Example 2: weedkilling efficacy, growth period weed treatment in the submerged state; B: bulrush; conditions: treatment dosage 252 g/ha
Summary of the method: (§2)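 Seedlings at 1-2 leaves in 4 cm-deep submerged alluvial soil received emulsion formulations on the water surface, dosed per hectare; effects were judged 3 weeks on.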

catchweed [2] = assay: Test Example 4: weedkilling efficacy by foliar treatment; O: catchweed; conditions: treatment dosage 315 g/ha
Summary of the method: (§3)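 Seeds are spot-sown into sterilized diluvial soil and covered with about 1.5 cm of soil. After 14 days' greenhouse growth at 25 to 30° C, plants are sprayed on stems and leaves with diluted emulsion at the stated g/ha rate, then scored at 3 weeks.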

Italian ryegrass [3] = assay: Test Example 3: weedkilling efficacy through soil treatment; I: Italian ryegrass; conditions: treatment dosage 315 g/ha
Summary of the method: (§4)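 Crop and weed responses were judged three weeks after a uniform surface spray of the water-diluted emulsion at the given g/ha rate. Seeds sat beneath about 1.5 cm of sterilized diluvial soil, and boxes stood in a greenhouse at 25 to 30° C.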

soybean [4] = assay: Test Example 4: foliar treatment, effect on crop; d: soybean; conditions: treatment dosage 315 g/ha
Summary of the method: as §3

birds-eye speedwell [5] = assay: Test Example 4: weedkilling efficacy by foliar treatment; p: birds-eye speedwell; conditions: treatment dosage 315 g/ha
Summary of the method: as §3

fig-leafed goosefoot [6] = assay: Test Example 4: weedkilling efficacy by foliar treatment; M: fig-leafed goosefoot; conditions: treatment dosage 315 g/ha
Summary of the method: as §3

catchweed [7] = assay: Test Example 3: weedkilling efficacy through soil treatment; O: catchweed; conditions: treatment dosage 315 g/ha
Summary of the method: as §4

black-grass [8] = assay: Test Example 3: weedkilling efficacy through soil treatment; H: black-grass; conditions: treatment dosage 315 g/ha
Summary of the method: as §4

Italian ryegrass [9] = assay: Test Example 4: weedkilling efficacy by foliar treatment; I: Italian ryegrass; conditions: treatment dosage 315 g/ha
Summary of the method: as §3

green foxtail [10] = assay: Test Example 4: weedkilling efficacy by foliar treatment; E: green foxtail; conditions: treatment dosage 315 g/ha
Summary of the method: as §3

crabgrass [11] = assay: Test Example 4: weedkilling efficacy by foliar treatment; D: crabgrass; conditions: treatment dosage 315 g/ha
Summary of the method: as §3

beet [12] = assay: Test Example 3: soil treatment, effect on crop; f: beet; conditions: treatment dosage 315 g/ha
Summary of the method: as §4

corn [13] = assay: Test Example 3: soil treatment, effect on crop; c: corn; conditions: treatment dosage 315 g/ha
Summary of the method: as §4

redroot pigweed [14] = assay: Test Example 3: weedkilling efficacy through soil treatment; L: redroot pigweed; conditions: treatment dosage 315 g/ha
Summary of the method: as §4

oval-leafed pondweed [15] = assay: Test Example 2: weedkilling efficacy, growth period weed treatment in the submerged state; C: oval-leafed pondweed; conditions: treatment dosage 252 g/ha
Summary of the method: as §2

bulrush [16] = assay: Test Example 1: weedkilling efficacy, preemergent weed treatment in the submerged state; B: bulrush; conditions: treatment dosage 252 g/ha
Summary of the method: as §1

Indian mallow [17] = assay: Test Example 3: weedkilling efficacy through soil treatment; K: Indian mallow; conditions: treatment dosage 315 g/ha
Summary of the method: as §4

chickweed [18] = assay: Test Example 4: weedkilling efficacy by foliar treatment; N: chickweed; conditions: treatment dosage 315 g/ha
Summary of the method: as §3

soybean [19] = assay: Test Example 3: soil treatment, effect on crop; d: soybean; conditions: treatment dosage 315 g/ha
Summary of the method: as §4

barnyard grass [20] = assay: Test Example 1: weedkilling efficacy, preemergent weed treatment in the submerged state; A: barnyard grass; conditions: treatment dosage 252 g/ha
Summary of the method: as §1

fig-leafed goosefoot [21] = assay: Test Example 3: weedkilling efficacy through soil treatment; M: fig-leafed goosefoot; conditions: treatment dosage 315 g/ha
Summary of the method: as §4

directly sown rice [22] = assay: Test Example 4: foliar treatment, effect on crop; b: directly sown rice; conditions: treatment dosage 315 g/ha
Summary of the method: as §3

crabgrass [23] = assay: Test Example 3: weedkilling efficacy through soil treatment; D: crabgrass; conditions: treatment dosage 315 g/ha
Summary of the method: as §4

black-grass [24] = assay: Test Example 4: weedkilling efficacy by foliar treatment; H: black-grass; conditions: treatment dosage 315 g/ha
Summary of the method: as §3

chickweed [25] = assay: Test Example 3: weedkilling efficacy through soil treatment; N: chickweed; conditions: treatment dosage 315 g/ha
Summary of the method: as §4

beet [26] = assay: Test Example 4: foliar treatment, effect on crop; f: beet; conditions: treatment dosage 315 g/ha
Summary of the method: as §3

wheat [27] = assay: Test Example 4: foliar treatment, effect on crop; e: wheat; conditions: treatment dosage 315 g/ha
Summary of the method: as §3

corn [28] = assay: Test Example 4: foliar treatment, effect on crop; c: corn; conditions: treatment dosage 315 g/ha
Summary of the method: as §3

directly sown rice [29] = assay: Test Example 3: soil treatment, effect on crop; b: directly sown rice; conditions: treatment dosage 315 g/ha
Summary of the method: as §4

green foxtail [30] = assay: Test Example 3: weedkilling efficacy through soil treatment; E: green foxtail; conditions: treatment dosage 315 g/ha
Summary of the method: as §4

birds-eye speedwell [31] = assay: Test Example 3: weedkilling efficacy through soil treatment; p: birds-eye speedwell; conditions: treatment dosage 315 g/ha
Summary of the method: as §4

wheat [32] = assay: Test Example 3: soil treatment, effect on crop; e: wheat; conditions: treatment dosage 315 g/ha
Summary of the method: as §4

Indian mallow [33] = assay: Test Example 4: weedkilling efficacy by foliar treatment; K: Indian mallow; conditions: treatment dosage 315 g/ha
Summary of the method: as §3

redroot pigweed [34] = assay: Test Example 4: weedkilling efficacy by foliar treatment; L: redroot pigweed; conditions: treatment dosage 315 g/ha
Summary of the method: as §3

barnyard grass [35] = assay: Test Example 2: weedkilling efficacy, growth period weed treatment in the submerged state; A: barnyard grass; conditions: treatment dosage 252 g/ha
Summary of the method: as §2

oval-leafed pondweed [36] = assay: Test Example 1: weedkilling efficacy, preemergent weed treatment in the submerged state; C: oval-leafed pondweed; conditions: treatment dosage 252 g/ha
Summary of the method: as §1

| SMILES | a (transplanted rice) effect on crop grade (transplanted rice) | B (bulrush) weedkilling efficacy grade (bulrush [1]) | O (catchweed) weedkilling efficacy grade (catchweed [2]) | I (Italian ryegrass) weedkilling efficacy grade (Italian ryegrass [3]) | d (soybean) effect on crop grade (soybean [4]) | P (birds-eye speedwell) weedkilling efficacy grade (birds-eye speedwell [5]) | M (fig-leafed goosefoot) weedkilling efficacy grade (fig-leafed goosefoot [6]) | O (catchweed) weedkilling efficacy grade (catchweed [7]) | H (black-grass) weedkilling efficacy grade (black-grass [8]) | I (Italian ryegrass) weedkilling efficacy grade (Italian ryegrass [9]) | E (green foxtail) weedkilling efficacy grade (green foxtail [10]) | D (crabgrass) weedkilling efficacy grade (crabgrass [11]) | f (beet) effect on crop grade (beet [12]) | c (corn) effect on crop grade (corn [13]) | L (redroot pigweed) weedkilling efficacy grade (redroot pigweed [14]) | C (oval-leafed pondweed) weedkilling efficacy grade (oval-leafed pondweed [15]) | B (bulrush) weedkilling efficacy grade (bulrush [16]) | K (Indian mallow) weedkilling efficacy grade (Indian mallow [17]) | N (chickweed) weedkilling efficacy grade (chickweed [18]) | d (soybean) effect on crop grade (soybean [19]) | further results |
| --- | --- | --- | --- | --- | --- | --- | --- | --- | --- | --- | --- | --- | --- | --- | --- | --- | --- | --- | --- | --- | --- |
| CC1=C(c2ccccc2)C(=O)N(C(C)(C)C(=O)Nc2nc(-c3ccccc3)ns2)CO1 [B-1-17] | 0 (weed kill ratio 5% or less (practically no effect)) | 5 (weed kill ratio 90% or more, (practically complete withering)) | 4 (weed kill ratio 70% or more, less than 90%) | 5 (weed kill ratio 90% or more, (practically complete withering)) | 0 (weed kill ratio 5% or less (practically no effect)) | 3 (weed kill ratio 40% or more, less than 70%) | 4 (weed kill ratio 70% or more, less than 90%) | 5 (weed kill ratio 90% or more, (practically complete withering)) | 5 (weed kill ratio 90% or more, (practically complete withering)) | 1 (weed kill ratio 5% or more, less than 20%) | 5 (weed kill ratio 90% or more, (practically complete withering)) | 5 (weed kill ratio 90% or more, (practically complete withering)) | 0 (weed kill ratio 5% or less (practically no effect)) | 0 (weed kill ratio 5% or less (practically no effect)) | 4 (weed kill ratio 70% or more, less than 90%) | 4 (weed kill ratio 70% or more, less than 90%) | 5 (weed kill ratio 90% or more, (practically complete withering)) | 0 (weed kill ratio 5% or less (practically no effect)) | 3 (weed kill ratio 40% or more, less than 70%) | 0 (weed kill ratio 5% or less (practically no effect)) | A (barnyard grass) weedkilling efficacy grade (barnyard grass [20]): 5 (weed kill ratio 90% or more, (practically complete withering)); M (fig-leafed goosefoot) weedkilling efficacy grade (fig-leafed goosefoot [21]): 5 (weed kill ratio 90% or more, (practically complete withering)); b (directly sown rice) effect on crop grade (directly sown rice [22]): 4 (weed kill ratio 70% or more, less than 90%); D (crabgrass) weedkilling efficacy grade (crabgrass [23]): 5 (weed kill ratio 90% or more, (practically complete withering)); H (black-grass) weedkilling efficacy grade (black-grass [24]): 5 (weed kill ratio 90% or more, (practically complete withering)); N (chickweed) weedkilling efficacy grade (chickweed [25]): 3 (weed kill ratio 40% or more, less than 70%); f (beet) effect on crop grade (beet [26]): 0 (weed kill ratio 5% or less (practically no effect)); e (wheat) effect on crop grade (wheat [27]): 0 (weed kill ratio 5% or less (practically no effect)); c (corn) effect on crop grade (corn [28]): 5 (weed kill ratio 90% or more, (practically complete withering)); b (directly sown rice) effect on crop grade (directly sown rice [29]): 0 (weed kill ratio 5% or less (practically no effect)); E (green foxtail) weedkilling efficacy grade (green foxtail [30]): 5 (weed kill ratio 90% or more, (practically complete withering)); P (birds-eye speedwell) weedkilling efficacy grade (birds-eye speedwell [31]): 5 (weed kill ratio 90% or more, (practically complete withering)); e (wheat) effect on crop grade (wheat [32]): 3 (weed kill ratio 40% or more, less than 70%); K (Indian mallow) weedkilling efficacy grade (Indian mallow [33]): 5 (weed kill ratio 90% or more, (practically complete withering)); L (redroot pigweed) weedkilling efficacy grade (redroot pigweed [34]): 5 (weed kill ratio 90% or more, (practically complete withering)); A (barnyard grass) weedkilling efficacy grade (barnyard grass [35]): 5 (weed kill ratio 90% or more, (practically complete withering)); C (oval-leafed pondweed) weedkilling efficacy grade (oval-leafed pondweed [36]): 5 (weed kill ratio 90% or more, (practically complete withering)) |
| CC1=C(c2ccc(Cl)s2)C(=O)N(C(C)(C)C(=O)Nc2cccc(Br)n2)CO1 [B-2-03] | 0 (weed kill ratio 5% or less (practically no effect)) | 5 (weed kill ratio 90% or more, (practically complete withering)) | 0 (weed kill ratio 5% or less (practically no effect)) | 3 (weed kill ratio 40% or more, less than 70%) | 1 (weed kill ratio 5% or more, less than 20%) | 2 (weed kill ratio 20% or more, less than 40%) | 3 (weed kill ratio 40% or more, less than 70%) | 0 (weed kill ratio 5% or less (practically no effect)) | 5 (weed kill ratio 90% or more, (practically complete withering)) | 3 (weed kill ratio 40% or more, less than 70%) | 1 (weed kill ratio 5% or more, less than 20%) | 3 (weed kill ratio 40% or more, less than 70%) | 0 (weed kill ratio 5% or less (practically no effect)) | 0 (weed kill ratio 5% or less (practically no effect)) | 3 (weed kill ratio 40% or more, less than 70%) | 4 (weed kill ratio 70% or more, less than 90%) | 5 (weed kill ratio 90% or more, (practically complete withering)) | 0 (weed kill ratio 5% or less (practically no effect)) | 0 (weed kill ratio 5% or less (practically no effect)) | 0 (weed kill ratio 5% or less (practically no effect)) | A (barnyard grass) weedkilling efficacy grade (barnyard grass [20]): 5 (weed kill ratio 90% or more, (practically complete withering)); M (fig-leafed goosefoot) weedkilling efficacy grade (fig-leafed goosefoot [21]): 0 (weed kill ratio 5% or less (practically no effect)); b (directly sown rice) effect on crop grade (directly sown rice [22]): 1 (weed kill ratio 5% or more, less than 20%); D (crabgrass) weedkilling efficacy grade (crabgrass [23]): 3 (weed kill ratio 40% or more, less than 70%); H (black-grass) weedkilling efficacy grade (black-grass [24]): 3 (weed kill ratio 40% or more, less than 70%); N (chickweed) weedkilling efficacy grade (chickweed [25]): 4 (weed kill ratio 70% or more, less than 90%); f (beet) effect on crop grade (beet [26]): 1 (weed kill ratio 5% or more, less than 20%); e (wheat) effect on crop grade (wheat [27]): 0 (weed kill ratio 5% or less (practically no effect)); c (corn) effect on crop grade (corn [28]): 0 (weed kill ratio 5% or less (practically no effect)); b (directly sown rice) effect on crop grade (directly sown rice [29]): 1 (weed kill ratio 5% or more, less than 20%); E (green foxtail) weedkilling efficacy grade (green foxtail [30]): 3 (weed kill ratio 40% or more, less than 70%); P (birds-eye speedwell) weedkilling efficacy grade (birds-eye speedwell [31]): 4 (weed kill ratio 70% or more, less than 90%); e (wheat) effect on crop grade (wheat [32]): 1 (weed kill ratio 5% or more, less than 20%); K (Indian mallow) weedkilling efficacy grade (Indian mallow [33]): 0 (weed kill ratio 5% or less (practically no effect)); L (redroot pigweed) weedkilling efficacy grade (redroot pigweed [34]): 1 (weed kill ratio 5% or more, less than 20%); A (barnyard grass) weedkilling efficacy grade (barnyard grass [35]): 5 (weed kill ratio 90% or more, (practically complete withering)); C (oval-leafed pondweed) weedkilling efficacy grade (oval-leafed pondweed [36]): 5 (weed kill ratio 90% or more, (practically complete withering)) |
